Test [1] has as its system CNR2. Nature of the test: Gene expression custom microarray, human skin fibroblasts (Example 1): CNR2. It counts as cell-based. The following applies: for fold induction at 10 µM: Skin fibroblast, read-out: CNR2↑ gene expression, fold increase or decrease vs untreated cells. An excerpt:
(§1) Cell cultures: A human skin fibroblast cell culture (or cultures) was obtained through the Coriell Cell Repository from the National Institute on Aging Cell Repository (Camden, N.J.), or Promocell GmbH (Heidelberg, Germany). The initial culture was selected from the following cell lines: AG13066, AG11557, AG11796 or GM03651E. The cell lines were derived from donors as follows:
(§2) Experimental phase: When the appropriate quantity of cells had been grown, they were detached as described above, but at the final step were seeded into each well of one or more 6 well dishes. Each well received 2 ml of the cell suspension so they were seeded equally. The dishes were returned to the incubator until 85-95% confluency was reached.
(§3) It is at this stage that all wells were rinsed in PBS after aspirating the growth media. The compound(s) to be tested were previously mixed into a suitable solvent (e.g., DMSO or ethanol) that can be diluted to the desired concentration of test compound (10 μl) in the culture wells without exceeding maximum solvent concentrations and adversely effecting cell viability, and mixed with basal media. NOTE: Standard maximum levels of solvent are 0.1% for DMSO and 0.5% for ETOH. The concentration of each test compound is found in Tables 1 & 2.
(§4) Every 2 wells on the 6 well plate served as a biological replicate for the purposes of RNA isolation and genetic expression evaluations making each 6 well dish an n=3 for the test compound(s) contained in the media. Negative control plates (no test compound(s) and only basal media) were also generated. The plates were returned to the incubator for 24 hrs.
(§5) At the end of the 24 hr time period, the plates were removed from the incubator, the test media aspirated, and the cells rinsed with PBS. RNA isolation is performed using the BioRad Aurum Total RNA Mini Kit (Hercules, Calif.) per manufacturer's protocol; which is described, in brief, below: • Add 350 μl of lysis buffer to each well. Pipet multiple times to ensure thorough lysis. Add lysed cells to the collection tube. • Add 350 μl of 70% ETOH to the collection tube and mix thoroughly. • Pipet the generated lysate onto the spin column placed in a new 2 ml tube. Centrifuge for 30 sec between 8,000 and 10,000 g. • Place the spin column containing the now bound RNA, in a new 2 ml tube. Add 700 μl of low stringency wash solution to the spin column. Centrifuge for 30 sec between 8,000 and 10,000 g. Discard the flow through and replace spin column. • Add 80 μl of DNase I dilution to the spin column and incubate at room temperature for 15 minutes. • Add 700 μl of high stringency wash solution to the column and centrifuge for 30 sec between 8,000 and 10,000 g. Discard flow through. • Add 700 μl of low stringency wash solution to the column and centrifuge for 60 sec between 8,000 and 10,000 g. Discard flow through. • Centrifuge for 2 minutes to remove residual wash solution. • Transfer spin column to new 1.5 ml collection tube and add 80 μl of elution solution to the column. Allow 1 minute for saturation of the membrane and then centrifuge for 2 minutes to complete the RNA elution. • Quantify the quantity of RNA and store at −20 C° until use (no more than 1 month)
(§6) The genes tested were: • Cannabinoid receptor 1 (CB1(CNR1)) • Cannabinoid receptor 2 (CB2 (CNR2)) • Fatty acid amide hydrolase (FAAH) • Monoacylglycerol lipase (MGLL, i.e., MAGL) • Peroxisome proliferator-activated receptor gamma (PPARG) • Nuclear factor kappa-light-chain-enhancer of activated B cells (NFκβ) • Interleukin 1 Alpha (IL1alpha) • Cyclooxygenase 1 (PTGS1, i.e., COX1) • Transient receptor potential cation channel subfamily A member 1 (TRPA1) • Transient receptor potential cation channel subfamily V member 1 (TRPV1) • Transient receptor potential cation channel subfamily M member 8 (TRPM8) • Hemoglobin Subunit Beta (HBB) REFERENCE GENE • Ribosomal Protein L13a (RPL13A) REFERENCE GENE […]

Test [2] relates to IL1A. Nature of the test: Gene expression custom microarray, human skin fibroblasts (Example 1): IL1A. In kind it is cell-based. The following applies: 24 hr; for fold induction at 10 µM: Skin fibroblast, read-out: IL1A↓ gene expression, fold increase or decrease vs untreated cells.
Description: as §1, §2, §3, §4, §5, §6

The mark [3] stands for this setting: human skin fibroblasts, 10 uM, 24 hr.

Structures are written as SMILES. Read-outs that look alike come from different tables or passages of the source.

As to `C=C(C)[C@@H]1CCC(C)=C[C@H]1c1c(O)cc(CCCCC)cc1O` [CBD, cannabidiol, reference compound], the fold induction at 10 µM was determined as 1.7 in test [1] (Homo sapiens, 24 h) and 20.5 in test [2].

With `CCCCCCCCCCCCCCCC(=O)NCCO` [N-palmitoylethanolamide], in test [1] (setting [3]), the “CNR2↑ gene expression, fold increase or decrease vs untreated cells” value stood at 3.9 fold. In test [2] (10 uM), the “IL1A↓ gene expression, fold increase or decrease vs untreated cells” value was −1.2 fold.

With `CC(C)[C@]12O[C@H]1[C@@H]1O[C@]13[C@]1(O[C@H]1C[C@H]1C4=C(CC[C@@]13C)C(=O)OC4)[C@@H]2O` [Triptolide], the fold induction at 10 µM was determined as 10.1 in test [1] (setting [3]) and 15.5 in test [2].
